Measured values as given in publication PMC12087874, “Biaryl Phosphates and Phosphonates as Selective Inhibitors of the Transcription Factor STAT4” (Angewandte Chemie (International Ed. in English), 2025).

How the values were obtained:
Type in all cases: binding
STAT5b = target: T1, STAT5b (Homo sapiens, UniProt P51692); experiment: Competitive fluorescence polarization (FP) assay, STAT5b SH2 domain; settings: for Ki: Ki derived from IC50; for IC50: mean ± SD, n = 3
T1 sequence (P51692 1-787): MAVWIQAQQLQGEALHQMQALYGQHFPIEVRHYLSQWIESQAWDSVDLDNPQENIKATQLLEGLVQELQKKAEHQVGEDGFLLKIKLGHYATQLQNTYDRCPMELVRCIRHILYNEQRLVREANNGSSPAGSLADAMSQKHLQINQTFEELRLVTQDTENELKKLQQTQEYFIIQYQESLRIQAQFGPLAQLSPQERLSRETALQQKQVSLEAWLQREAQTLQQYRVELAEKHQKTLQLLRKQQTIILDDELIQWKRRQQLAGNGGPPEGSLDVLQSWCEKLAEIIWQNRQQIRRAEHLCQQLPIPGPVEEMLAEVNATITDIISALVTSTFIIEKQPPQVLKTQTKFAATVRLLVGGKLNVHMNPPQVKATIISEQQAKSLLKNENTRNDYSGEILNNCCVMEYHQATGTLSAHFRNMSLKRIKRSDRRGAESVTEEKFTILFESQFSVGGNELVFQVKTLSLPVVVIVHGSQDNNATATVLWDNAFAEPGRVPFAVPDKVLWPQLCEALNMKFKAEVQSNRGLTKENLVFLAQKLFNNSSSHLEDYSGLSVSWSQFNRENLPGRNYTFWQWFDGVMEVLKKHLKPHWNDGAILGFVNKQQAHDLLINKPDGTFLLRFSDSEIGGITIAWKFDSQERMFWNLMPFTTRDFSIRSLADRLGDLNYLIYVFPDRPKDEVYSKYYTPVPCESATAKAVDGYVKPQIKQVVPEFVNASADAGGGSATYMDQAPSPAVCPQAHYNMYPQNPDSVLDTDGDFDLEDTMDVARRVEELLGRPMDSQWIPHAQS
Description: (§1) Fluorescence polarization assays
(§2) Competitive fluorescence polarization assays, which measure the abilities of test compounds (dissolved in DMSO) to displace a fluorescent-labeled peptide from the SH2 domain of a STAT protein, were carried out essentially as described. Proteins were used at the following final concentrations: 23 nM or 28 nM for STAT4; between 56 nM and 91 nM for STAT1; 107 nM or 110 nM for STAT3; between 131 nM and 177 nM for STAT5a; between 62 nM and 85 nM for STAT5b; and 101 nM or 106 nM for STAT6. These concentrations represent the approximate […]
(§3) dissociation constant for peptide binding of the respective protein batches used in the assays.
(§4) The following peptides were used: 5-carboxyfluorescein-GpYLPQNID-OH for STAT4; 5-carboxyfluorescein-GpYDKPHVL for STAT1; 5-carboxyfluorescein-GpYLPQTV-NH2 for STAT3; 5-carboxyfluorescein-GpYLVLDKW for STAT5a/b, and 5-carboxyfluorescein- […]
(§5) Gp[…]-OH for STAT6. All peptides were used at a final concentration of 10 nM. The buffer consisted of 10 mM Tris (pH 8.0), 50 mM NaCl, 1 mM EDTA, 1 mM DTT, 0 .1 % Nonidet P-40 substitute, and 2 % DMSO. After incubation of protein and test compound for 1 h at room temperature, the fluorescent -labeled peptide was added. Samples were transferred to 384 - well microtiter plates and fluorescence polarization was read after an additional 60 min of incubation time. Measurements were performed in triplicate. Percent binding was calculated based on a logarithmic curve fit using OriginPro 8G software. IC 50 values were converted to Ki-values via the published equation[3] using the corresponding Excel spread sheet […]
(§6) https://websites.umich.edu/~shaomengwanglab/software/calc_ki/index.html .
(§7) Error bars represent standard deviations. Ligand efficiencies (LE) were calculated by the formula LE = -1,37 x log Ki / number of non-hydrogen atoms.[4] […]

STAT3 = STAT3 (Homo sapiens, UniProt P40763); experiment: Competitive fluorescence polarization (FP) assay, STAT3 SH2 domain; settings: for IC50: mean ± SD, n = 3; for Ki: tracer 5-carboxyfluorescein-GpYLPQTV-NH2, Ki derived from IC50
Description: as §1, §2, §3, §4, §5, §6, §7

STAT6 = target: T2, STAT6 (Homo sapiens, UniProt P42226); experiment: Competitive fluorescence polarization (FP) assay, STAT6 SH2 domain; settings: for Ki: Ki derived from IC50; for IC50: mean ± SD, n = 3
T2 sequence (P42226 1-847): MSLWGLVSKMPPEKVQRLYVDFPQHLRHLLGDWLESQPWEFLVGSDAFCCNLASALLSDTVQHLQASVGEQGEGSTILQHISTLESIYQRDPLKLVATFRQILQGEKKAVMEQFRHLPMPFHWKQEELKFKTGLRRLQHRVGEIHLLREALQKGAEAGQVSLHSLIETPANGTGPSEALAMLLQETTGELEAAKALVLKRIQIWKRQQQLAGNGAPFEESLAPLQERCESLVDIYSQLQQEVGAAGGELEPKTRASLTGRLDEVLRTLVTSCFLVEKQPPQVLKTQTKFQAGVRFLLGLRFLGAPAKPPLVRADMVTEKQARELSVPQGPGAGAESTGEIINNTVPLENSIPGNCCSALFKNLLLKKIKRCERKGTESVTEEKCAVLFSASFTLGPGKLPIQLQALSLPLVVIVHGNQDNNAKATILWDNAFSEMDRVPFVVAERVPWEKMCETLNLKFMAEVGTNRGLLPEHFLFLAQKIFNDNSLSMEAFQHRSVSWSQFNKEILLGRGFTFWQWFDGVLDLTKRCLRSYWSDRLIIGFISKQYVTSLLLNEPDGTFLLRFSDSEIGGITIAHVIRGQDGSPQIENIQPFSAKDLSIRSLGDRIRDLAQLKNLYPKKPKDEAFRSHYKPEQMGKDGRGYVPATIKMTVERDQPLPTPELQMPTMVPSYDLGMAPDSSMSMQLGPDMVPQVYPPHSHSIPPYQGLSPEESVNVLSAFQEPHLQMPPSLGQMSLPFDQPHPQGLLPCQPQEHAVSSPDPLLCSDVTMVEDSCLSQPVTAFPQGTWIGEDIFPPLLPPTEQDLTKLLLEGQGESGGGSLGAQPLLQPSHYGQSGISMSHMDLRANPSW
Description: as §1, §2, §3, §4, §5, §6, §7

STAT3, sequence (P40763 whole entry, species assumed, the tested form may be a part): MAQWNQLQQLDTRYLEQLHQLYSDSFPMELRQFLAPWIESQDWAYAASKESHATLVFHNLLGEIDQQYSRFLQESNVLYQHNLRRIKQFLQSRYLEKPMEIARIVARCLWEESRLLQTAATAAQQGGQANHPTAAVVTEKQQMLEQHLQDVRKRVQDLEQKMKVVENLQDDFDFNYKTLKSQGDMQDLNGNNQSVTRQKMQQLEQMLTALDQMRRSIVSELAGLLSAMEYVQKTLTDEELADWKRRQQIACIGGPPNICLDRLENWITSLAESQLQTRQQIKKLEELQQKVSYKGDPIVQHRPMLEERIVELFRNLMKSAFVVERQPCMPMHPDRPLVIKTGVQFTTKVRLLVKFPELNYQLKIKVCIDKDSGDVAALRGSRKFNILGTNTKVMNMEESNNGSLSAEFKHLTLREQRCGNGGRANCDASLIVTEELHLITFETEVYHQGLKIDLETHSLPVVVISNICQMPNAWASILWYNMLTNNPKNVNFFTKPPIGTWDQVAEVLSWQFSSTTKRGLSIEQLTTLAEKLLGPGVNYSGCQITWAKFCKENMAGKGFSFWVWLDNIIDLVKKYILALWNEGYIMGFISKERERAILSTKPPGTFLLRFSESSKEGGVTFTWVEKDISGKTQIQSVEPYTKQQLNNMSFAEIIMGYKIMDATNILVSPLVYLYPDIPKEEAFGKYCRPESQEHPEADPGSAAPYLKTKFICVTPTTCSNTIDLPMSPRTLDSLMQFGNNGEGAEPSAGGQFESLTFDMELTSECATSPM

O=P(O)(O)Oc1ccc(-c2ccccc2)cc1 [Compound 1, para‐biphenyl phosphate]
Ki (STAT5b): 47 ± 3 µM | IC50 (STAT5b): 95 ± 6 µM | IC50 (STAT3): 18 ± 3 µM | Ki (STAT3): 8.4 ± 1 µM | Ki (STAT6): 7.3 ± 0.4 µM | IC50 (STAT6): 15 ± 1 µM

O=P(O)(O)Oc1ccc(-c2ccc3ccccc3c2)cc1 [Compound 6g]
Ki (STAT5b): 53 ± 5 µM | IC50 (STAT5b): 109 ± 11 µM | IC50 (STAT3): 37 ± 2 µM | Ki (STAT3): 18 ± 1 µM | Ki (STAT6): 9.3 ± 1.1 µM | IC50 (STAT6): 19 ± 2 µM

O=P(O)(O)Oc1ccc(-c2ccccc2)cc1F [Compound 6h]
Ki (STAT5b): 45 ± 7 µM | IC50 (STAT5b): 91 ± 14 µM | IC50 (STAT3): 9.1 ± 0.6 µM | Ki (STAT3): 4.5 ± 0.3 µM | Ki (STAT6): 46 ± 3 µM | IC50 (STAT6): 90 ± 7 µM

O=P(O)(O)Oc1ccc(-c2ccc3ccccc3c2)cc1F [Compound 6m]
Ki (STAT5b): 26 ± 2 µM | IC50 (STAT5b): 52 ± 4 µM | IC50 (STAT3): 10 ± 1 µM | Ki (STAT3): 5 ± 0.5 µM | Ki (STAT6): 29 ± 2 µM | IC50 (STAT6): 57 ± 4 µM

O=P(O)(O)C(F)(F)c1ccc(-c2ccc3ccccc3c2)cc1F [Compound 8a]
Ki (STAT5b): 39 ± 1 µM | IC50 (STAT5b): 79 ± 3 µM | IC50 (STAT3): 44 ± 2 µM | Ki (STAT3): 22 ± 1 µM | Ki (STAT6): 15 ± 2 µM | IC50 (STAT6): 30 ± 3 µM

Cc1cc(-c2ccc(C(F)(F)P(=O)(O)O)c(F)c2)cs1 [Compound 8k]
Ki (STAT5b): 64 ± 7 µM | IC50 (STAT5b): 130 ± 14 µM | IC50 (STAT3): 31 ± 4 µM | Ki (STAT3): 15 ± 2 µM | Ki (STAT6): 13 ± 1 µM | IC50 (STAT6): 26 ± 2 µM
